How the values were obtained:
Assay in all cases: relative viability (nuclei count vs DMSO), 5 days (fraction); higher = more cells survive
[1] = compound: Cn1cc(-c2cnn3c(N)c(Br)c([C@@H]4CCCNC4)nc23)cn1 + Cc1nc(Nc2ncc(C(=O)Nc3c(C)cccc3Cl)s2)cc(N2CCN(CCO)CC2)n1 [Dasatinib] (partner 0.075 µM)
How it was run: (§1)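 Values are medians from duplicate plates. Each reflects relative viability, defined as the nuclei count of treated wells over that of vehicle wells. Lung cancer cell lines in 1536-well plates were pin-tool dosed one day after seeding with one drug alone or with a fixed anchor-drug dose plus five library-drug doses (not always all listed) in √10 steps, then fixed, stained and imaged at 4× after 5 days.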

[2] = compound: Cn1cc(-c2cnn3c(N)c(Br)c([C@@H]4CCCNC4)nc23)cn1 + O=C(CCCCCCC(=O)Nc1ccccc1)NO [Vorinostat] (partner 1 µM)
How it was run: as §1

[3] = compound: Cn1cc(-c2cnn3c(N)c(Br)c([C@@H]4CCCNC4)nc23)cn1 + CC(=O)c1c(C)c2cnc(Nc3ccc(N4CCNCC4)cn3)nc2n(C2CCCC2)c1=O [Palbociclib] (partner 0.5 µM)
How it was run: as §1

[4] = compound: Cn1cc(-c2cnn3c(N)c(Br)c([C@@H]4CCCNC4)nc23)cn1 + Nc1nc2[nH]cc(CCc3ccc(C(=O)N[C@@H](CCC(=O)O)C(=O)O)cc3)c2c(=O)[nH]1 [Pemetrexed] (partner 0.2 µM)
How it was run: as §1

Row | Cell Line | relative viability ([1]; first compound 0.05 µM) | relative viability ([1]; first compound 0.1581 µM) | relative viability ([1]; first compound 0.5 µM) | relative viability ([1]; first compound 1.581 µM) | relative viability ([1]; first compound 5 µM) | relative viability ([2]; first compound 0.05 µM) | relative viability ([2]; first compound 0.1581 µM) | relative viability ([2]; first compound 0.5 µM) | relative viability ([2]; first compound 1.581 µM) | relative viability ([2]; first compound 5 µM) | relative viability ([3]; first compound 0.05 µM) | relative viability ([3]; first compound 0.1581 µM) | relative viability ([3]; first compound 0.5 µM) | relative viability ([3]; first compound 1.581 µM) | relative viability ([3]; first compound 5 µM) | relative viability ([4]; first compound 0.05 µM) | relative viability ([4]; first compound 0.1581 µM) | relative viability ([4]; first compound 0.5 µM) | relative viability ([4]; first compound 1.581 µM) | relative viability ([4]; first compound 5 µM)
1 | PC-14 | 0.272 | 0.203 | 0.196 | 0.113 | 0.063 | 0.752 | 0.601 | 0.527 | 0.223 | 0.117 | 0.614 | 0.358 | 0.269 | 0.156 | 0.121 | 0.13 | 0.1 | 0.102 | 0.089 | 0.0648
2 | RERF-LC-KJ | 0.936 | 0.806 | 0.813 | 0.572 | 0.618 | 0.636 | 0.808 | 0.802 | 0.599 | 0.6 | 0.983 | 1.04 | 1.03 | 0.863 | 0.712 | 0.459 | 0.476 | 0.477 | 0.422 | 0.478
3 | SK-LU-1 | 0.173 | 0.132 | 0.148 | 0.164 | 0.118 | 0.92 | 0.631 | 0.407 | 0.369 | 0.281 | 0.388 | 0.308 | 0.366 | 0.323 | 0.225 | 0.955 | 0.612 | 0.536 | 0.321 | 0.227
4 | SK-MES-1 | 0.359 | 0.308 | 0.236 | 0.231 | 0.118 | 1.22 | 0.877 | 0.788 | 0.38 | 0.216 | 0.315 | 0.327 | 0.308 | 0.273 | 0.238 | 1.05 | 0.755 | 0.651 | 0.351 | 0.258
5 | SW 900 | 0.496 | 0.585 | 0.671 | 0.448 | 0.197 | 0.47 | 0.362 | 0.648 | 0.369 | 0.181 | 0.53 | 0.527 | 0.535 | 0.444 | 0.529 | 0.449 | 0.468 | 0.493 | 0.295 | 0.305
6 | SW 1573 | 0.604 | 0.631 | 0.455 | 0.247 | 0.453 | 0.818 | 0.967 | 0.682 | 0.582 | 0.721 | 0.482 | 0.447 | 0.333 | 0.264 | 0.301 | 1 | 0.759 | 0.832 | 0.526 | 0.824
7 | UMC-11 | 0.536 | 0.424 | 0.32 | 0.312 | 0.341 | 0.331 | 0.313 | 0.345 | 0.334 | 0.291 | 0.346 | 0.316 | 0.312 | 0.304 | 0.29 | 0.841 | 0.753 | 0.626 | 0.657 | 0.429

— the supplement of paper PMC10307832
